Results reported in patent publication US20250108050A1, “COMBINATION OF EGFR INHIBITOR AND MEK INHIBITOR FOR USE IN THE TREATMENT OF NRAS MUTATED CANCER” (ASTRAZENECA AB, priority 2014, published 2025).

How the values were obtained:
PC9 cells [1] = test: cells; details: Homo sapiens, PC-9, read-out: concentration required to inhibit growth of PC9 cells by 50% (EC50)
Method: PC9 cells were seeded at 5×10^5 cells in multiple fresh T75 flasks in growth media and incubated at 37° C., 5% CO2.

active NRAS [2] = test: RAS activation assay (GST-RAS binding domain pull down, western blot) in parental PC-9 cells; assay type: cell-based, human; details: 160 nM for 2 hours
Method: (§1) PC9 and PC9 AZD9291 resistant cells were cultured in media containing no AZD9291 for 4 days. Cells were then plated into 6 well plates and serum starved overnight. The following day the cells were treated for 2 hours with media supplemented with or without 160 nM AZD9291. Lysates were prepared and active NRAS isolated using a GST-RAS binding domain pull down assay (Thermo Scientific). Pull down lysates were analysed by western blot using an NRAS specific antibody.

active NRAS [3] = test: RAS activation assay (GST-RAS binding domain pull down, western blot) in resistant PC-9 cells with E63K or G12V NRAS; assay type: cell-based, human; details: mutant NRAS (E63K or G12V) resistant PC-9 cells; 160 nM for 2 hours
Method: as §1

PC9 cells [4] = test: Growth inhibition of PC9 cells over expressing E63K mutant NRAS (sytox green); assay type: cell-based, human; details: 100 nM AZD9291 or 300 nM gefitinib, 96 hours, vs control construct
Method: PC9 cells were transfected with control DNA construct, pcDNA 3.1+ control, or a construct designed to express E63K mutant NRAS, pcDNA 3.1+/NRAS E63K, (Life Technologies Ltd.). For 96 hour expression MaxCyte transfection technology was used to electroporate the PC9 cells. PC9 cells were passaged the day before the transfection. On the day of the transfection cells were harvested and resuspended at 9×10^7 cells per 600 μL MaxCyte buffer. 100 μL of cell suspension was transferred to a MaxCyte cuvette and the cells electroporated with 20 μg DNA construct. Following electroporation the cells for each condition were transferred to a 6 well plate and incubated at 37° C. for 30 minutes after which they were seeded in a 6 well plate at 4×10^5 cells per well. Following over night incubation the cells were harvested and replated in 384 well plate at 1000 cells/well. […] A live cell number was determined using the sytox green method as described hereinbefore.

PC9 (NRAS WT) = test: Sytox Green live cell number assay, selumetinib titration; assay type: cell-based; details: Homo sapiens, PC9 (NRAS WT) parental, 72 hours
Method: (§2) The effects of a panel of canonical pathway inhibitors on cell growth and survival was measured using a cell assay using Sytox Green staining as an end point.
(§3) Cell lines were plated in 384 well plates at 1000 cells per well in 70 μL per well of RPMI media containing 10% foetal calf serum, 2 mM L-glutamine and originating EGFR inhibitor.
(§4) The cells were allowed to attach overnight at 37° C., 5% CO2. The following day titrations of test compound were added to the assay plates using an Echo Liquid Handler Labcyte (California, USA) and the treated cells incubated for a further 72 hours at 37° C., 5% CO2. Each compound was tested as an 11 point dose response with a top concentration of 10 μM and 1 in 3 dilutions. Following 72 hours incubation of the compound treated plates, 5 μL of 2 μM SYTOX Green Nucleic Acid Stain, Life Technologies (Paisley, UK) was added per well and the plates incubated at room temperature for one hour. The number of fluorescent cells per well was measured on the Acumen TTP LabTech Ltd. (Melbourn, UK) this number representing the dead cell count. 10 μL of 0.25% Saponin Sigma (Dorset, UK) was added per well and the plates incubated over night at room temperature. The total number of fluorescent cells per well was acquired on the Acumen. The number of dead cells was subtracted from the total number of cells and the live cell number plotted to determine EC50 values from dose response curves.

PC9_9291R_3 (NRAS G12V) = test: as above; assay type: cell-based; details: Homo sapiens, with originating EGFR inhibitor, 72 hours
Method: as §2, §3, §4

[5] = test system: PC9_9291R_LOB1 (NRAS E63K); test: as above; assay type: cell-based; details: Homo sapiens, with originating EGFR inhibitor, 72 hours
Method: as §2, §3, §4

[6] = test system: PC9_IR4_9291R_2 (NRAS WT gain); test: as above; assay type: cell-based; details: Homo sapiens, with originating EGFR inhibitor, 72 hours
Method: as §2, §3, §4

[7] = test system: PC9_IR4_9291R_3 (NRAS WT gain); test: as above; assay type: cell-based; details: Homo sapiens, with originating EGFR inhibitor, 72 hours
Method: as §2, §3, §4

PC9_IRGM (NRAS WT) = test: as above; assay type: cell-based; details: Homo sapiens, with originating EGFR inhibitor, 72 hours
Method: as §2, §3, §4

PC9_IRLR (NRAS E63K) = test: as above; assay type: cell-based; details: Homo sapiens, with originating EGFR inhibitor, 72 hours
Method: as §2, §3, §4

[8] = test system: PC9_afatinib_5 (NRAS gain); test: as above; assay type: cell-based; details: Homo sapiens, with originating EGFR inhibitor, 72 hours
Method: as §2, §3, §4

[9] = test system: PC9_9291R_LOB3 (NRAS G12R); test: as above; assay type: cell-based, human
Method: as §2, §3
as §4, with “The total number of fluorescent cells per well was acquired on the Acumen. The number of dead cells was subtracted from the total number of cells and the live cell number plotted to determine EC50 values from dose response curves.” left out
An AZD9291-resistant PC9 cell line was prepared using standard methods as illustrated hereinbefore. A range of such resistant cell populations were cultured and analysed.

NRAS = test: siRNA knockdown, western blot of NRAS expression; assay type: cell-based, human; details: 20 nM siRNA, 48 hours; PC9, PC9 gefitinib-resistant and PC9 AZD9291-resistant cells
Method: (§5) PC9, PC9 gefitinib-resistant and PC9 AZD9291-resistant cells were plated at 5×10^5 cells per well in 6 well plates in 2 mls per well of growth media supplemented with EGFR inhibitor where appropriate (resistant cells were grown in the presence of EGFR inhibitor). The cells were incubated over night at 37° C., 5% CO2. The following day the cells were treated with a final concentration of 20 nM of siRNA from Dharmacon as detailed in Table 7.
(§6) Each siRNA construct was prepared in Optimem (Life Technologies) media using RNA iMAX (Invitrogen) as transfection reagent. For each well: 2.5 μl of siRNA (20 μM stock) was mixed with 250 μL of Optimem; and 2.5 μL of RNA iMAX was mixed with 250 μL of Optimem. The 2 solutions were mixed together by pipetting and allowed to stand for 5 minutes at room temperature. The final 500 μL solution was then pipetted into the appropriate 2 mL of growth media in the 6 well plates. The plates were swirled gently and further incubated over night at 37° C., 5% CO2. The following day each well of cells was harvested and the cell number counted.
(§7) The following day, lysates were prepared from the 6 well plates so that knockdown of protein expression could be assessed following 48 hours treatment with siRNA. The lysates were analysed by western blot for levels of: phosphorylated EGFR, phosphorylated ERK, NRAS and KRAS. […]

KRAS = test: siRNA knockdown, western blot of KRAS expression; assay type: cell-based, human; details: 20 nM siRNA, 48 hours; PC9, PC9 gefitinib-resistant and PC9 AZD9291-resistant cells
Method: as §5, §6, §7

## C=CC(=O)Nc1cc(Nc2nccc(-c3cn(C)c4ccccc34)n2)c(OC)cc1N(C)CCN(C)C [AZD9291, N-(2-{2-dimethylaminoethyl-methylamino}-4-methoxy-5-{[4-(1-methylindol-3-yl)pyrimidin-2-yl]amino}phenyl)prop-2-enamide]
PC9 cells [1]
  EC50: 10 nM
Active NRAS [2]
  active NRAS: decrease
  phosphorylated EGFR: decrease
Active NRAS [3]
  active NRAS: not associated with corresponding decrease in active NRAS
  phosphorylated EGFR: decrease
PC9 cells [4]
  cell growth inhibition when cells over expressed E63K mutant NRAS: reduced

## Cn1cnc2c(F)c(Nc3ccc(Br)cc3Cl)c(C(=O)NOCCO)cc21 [Selumetinib, 5-[(4-bromo-2-chlorophenyl)amino]-4-fluoro-N-(2-hydroxyethoxy)-1-methyl-1H-benzimidazole-6-carboxamide]
PC9 (NRAS WT)
  EC50: 6950 nM
PC9_9291R_3 (NRAS G12V)
  EC50: 1400 nM
[5]
  EC50: 167 nM
[6]
  EC50: 540 nM
[7]
  EC50: 130 nM
PC9_IRGM (NRAS WT)
  EC50: 7240 nM
PC9_IRLR (NRAS E63K)
  EC50: 620 nM
[8]
  EC50: 890 nM
[9]; AZD9291-resistant PC9 population with NRAS G12R vs parental cell line
  increased sensitivity as compared to the parental cell line: > 5 fold
[9]; Homo sapiens, PC9_9291R_LOB3 (NRAS G12R), with originating EGFR inhibitor, 72 hours
  EC50: 140 nM

## KRAS_1: siRNA from Dharmacon, J-005069-10, sequence GAAGUUAUGGAAUUCCUUU, SEQ ID NO: 16 (listed as RNA, chemistry not given here; listed as Homo sapiens)
NRAS
  NRAS expression (western blot): no affect
KRAS
  KRAS expression (western blot): knockdown
